Measured values as given in patent US6063782A, “Pyrrolopyridazine derivatives” (Sankyo Company, Limited, priority 1994, dated 2000).

How the values were obtained:
[1] = target: proton.potassium-adenosine triphosphatase (H+.K+-ATPase) (Sus scrofa, UniProt P19156); assay: Proton.potassium-adenosine triphosphatase (H+.K+-ATPase) inhibition test; assay type: biochemical; settings: microsomal fraction of porcine gastric mucosa, pH=6.85, 37° C.; result given in words only
Experimental: Proton.potassium-adenosine triphosphatase (H^+.K^+ -ATPase) activation test
According to the method reported by Sachs et al. [J. Biol. Chem., 251, 7690 (1976)], a microsomal fraction obtained from homogenized fresh porcine gastric mucosa by density gradient ultracentrifugation was used as the proton.potassium-adenosine triphosphatase preparation, 10 μl of a solution of a test compound in dimethylsulfoxide were added to 0.75 ml of 70 mM tris-HCl buffer solution (magnesium chloride 5 mM, potassium chloride 20 mM and pH=6.85) containing from 30 to 80 μg/ml (in terms of protein concentration) of the enzyme preparation and the mixture was incubated for 45 minutes at 37° C. with shaking at 200 times per minute. The enzyme reaction was initiated by adding 0.25 ml of 8 mM disodium adenosine triphosphate solution. After 20 minutes of the reaction time, the reaction was stopped by adding 1 ml of a 10k trichloroacetic acid-active carbon (100 mg) solution. The reaction solution was centrifuged (4° C., 3000 rpm, 15 minutes) and the inorganic phosphate in the supernatant prepared from adenosine triphosphate by hydrolysis was measured by colorimetry, according to the method of Yoda and Hokin [Biochem. Biophys. Res. Commun., 40, 880 (1970)]. In a similar manner, the amount of inorganic phosphate was measured in a reaction solution in the absence of potassium chloride. From the difference between the phosphate amounts in the presence and absence of potassium chloride, the proton-potassium-adenosine triphosphatase activity was calculated. Based on the activity value in the control and the values in the test compound at the various concentrations tested, the inhibiting rates (%) and then the 50? inhibiting concentrations (IC50) to proton.potassium-adenosine triphosphatase activity were obtained.

gastric acid secretion = assay: Gastric acid secretion activity test using pyloric ligation in rats (Shay rat method); assay type: in vivo; settings: male SD rats, 20 mg/kg injected into the duodenal region, 4 hours, result given in words only
Experimental: Gastric acid secretion activity test using pyloric ligation in rats (Shay rat method)
Pyloric ligation was conducted based on the method of Shay et al. [Gastroenterology, 5, 43 (1945)]. Male rats of SD strain were fasted for 24 hours; their abdomens were sectioned during anesthesia under ether. The duodenal and pyloric regions were exposed and the latter was ligated. A solution of a test compound (10 mg/ml) prepared by use of 1.5w parts of dimethylacetamide, 68.5% parts of polyethyleneglycol (PEG-400) and 30% parts of physiological saline solution, was injected into the duodenal region for the dose to be 20 mg/kg by use of a 1-ml syringe and an injection needle (26G). After injection of the test compound, the abdominal region was sutured. The animals were allowed to a stand for 4 hours without feeding food and water and then sacrified with carbon dioxide gas. The stomach was excised and gastric juice was gathered. The gastric juice sample was centrifuged (4° C., 2500 rpm, 15 minutes). The amount of the supernatant was measured to be as the gastric secretion. The acidity of the gastric juice was determined by the amount (ml) of 0.01 N sodium hydroxide solution required for titration of 0.1 ml of the supernatant to pH 7.0 by use of-an auto-titrating apparatus. The value of gastric acid secretion was calculated from the value of gastric secretion and the acidity of gastric juice. The inhibiting rate was obtained from the values of gastric acid secretion of the control group and of the administered group.

[2] = tested on: Helicobacter pylori strains 9470, 9472 and 9474; assay: Antibacterial activity against Helicobacter pylori; assay type: cell-based; settings: strains 9470, 9472 and 9474, 37° C., 3 days, slightly aerobic; result given in words only
Experimental: Antibacterial activity against Helicobacter pylori The antibacterial activity of the compounds of the present invention were evaluated by measuring the minimum inhibitory concentration values (MIC) of the present compounds against Helicobacter pylori strains 9470, 9472 and 9474. These strains of Helicobacter pylori were incubated for 4 days on a plate medium. The medium was prepared by dissolving brain heart infusion agar (Product of DIFCO) in a defined amount of distilled water, by sterilization in an autoclave, injecting horse blood (Product of Nihon Seibutsu Zairyo Co.) into each plate for the medium to contain 7% of the blood and by solidifying. Under slightly aerobic conditions, Helicobacter pylori cultivated at 37° C. for 4 days was suspended in a physiological saline solution for its inocular size to be about 10^8 CFU/ml. The suspension was diluted 100 times, and about 10 μl of the diluted suspension was inoculated on a medium for MIC determination. The medium for MIC determination used had the same compounds as those for preculture. […] In a similar way to the preculture, Helicobacter pylori was cultivated at 37° C. for 3 days under slightly aerobic conditions. […] The minimum concentration which gave no bacterial growth was regarded as MIC of the compound of the present invention.

Chain of proton.potassium-adenosine triphosphatase (H+.K+-ATPase) (P19156 whole entry): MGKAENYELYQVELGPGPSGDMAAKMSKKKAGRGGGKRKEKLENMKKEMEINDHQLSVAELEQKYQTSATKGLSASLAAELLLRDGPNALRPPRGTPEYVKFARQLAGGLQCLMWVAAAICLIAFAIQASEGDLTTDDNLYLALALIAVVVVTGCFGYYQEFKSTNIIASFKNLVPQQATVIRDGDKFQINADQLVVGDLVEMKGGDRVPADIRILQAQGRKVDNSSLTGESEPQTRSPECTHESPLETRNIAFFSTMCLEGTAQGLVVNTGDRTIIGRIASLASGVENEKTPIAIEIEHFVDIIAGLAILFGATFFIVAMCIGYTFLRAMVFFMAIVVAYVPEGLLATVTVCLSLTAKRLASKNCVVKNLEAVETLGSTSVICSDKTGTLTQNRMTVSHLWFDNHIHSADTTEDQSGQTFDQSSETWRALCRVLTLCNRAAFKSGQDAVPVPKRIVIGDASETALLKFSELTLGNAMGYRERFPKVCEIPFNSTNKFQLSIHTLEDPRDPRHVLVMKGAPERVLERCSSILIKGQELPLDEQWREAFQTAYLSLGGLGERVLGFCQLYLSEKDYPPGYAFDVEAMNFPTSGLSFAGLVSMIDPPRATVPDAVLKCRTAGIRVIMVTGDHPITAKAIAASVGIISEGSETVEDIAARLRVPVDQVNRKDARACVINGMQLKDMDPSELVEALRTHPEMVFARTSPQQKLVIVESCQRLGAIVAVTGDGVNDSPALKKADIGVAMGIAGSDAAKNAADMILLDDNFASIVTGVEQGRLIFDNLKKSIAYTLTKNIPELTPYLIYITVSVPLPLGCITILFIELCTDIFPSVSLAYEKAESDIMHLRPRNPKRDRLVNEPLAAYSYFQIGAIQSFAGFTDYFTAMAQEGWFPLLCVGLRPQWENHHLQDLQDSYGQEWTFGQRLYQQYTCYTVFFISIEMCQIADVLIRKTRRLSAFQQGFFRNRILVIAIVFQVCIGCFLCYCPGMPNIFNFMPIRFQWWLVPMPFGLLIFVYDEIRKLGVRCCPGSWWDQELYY
Chain of proton.potassium-adenosine triphosphatase (H+.K+-ATPase) (P18434 whole entry partner): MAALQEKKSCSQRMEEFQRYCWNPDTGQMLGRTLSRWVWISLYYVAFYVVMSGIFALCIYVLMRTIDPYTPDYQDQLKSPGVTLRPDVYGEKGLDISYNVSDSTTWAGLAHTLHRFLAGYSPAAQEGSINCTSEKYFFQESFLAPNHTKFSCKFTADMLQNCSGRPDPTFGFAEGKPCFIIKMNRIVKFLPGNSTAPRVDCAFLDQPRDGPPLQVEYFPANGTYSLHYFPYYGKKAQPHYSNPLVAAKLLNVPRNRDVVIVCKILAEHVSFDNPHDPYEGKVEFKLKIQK

CC=CCn1c(C)c(C)c2cnnc(OCc3ccc(F)cc3)c21 [Example 1, 1-(2-Butenyl)-7-(4-fluorobenzyloxy)-2,3-dimethylpyrrolo[2,3-d]pyridazine]
inhibiting concentrations (IC50) to proton.potassium-adenosine triphosphatase activity [1]: excellent activity
inhibiting rate of gastric acid secretion (gastric acid secretion): excellent activity
minimum inhibitory concentration (MIC) against Helicobacter pylori [2]: excellent antibacterial activity
